Assay results as given in patent US20250145632A1, “Pyrimidine Heterocyclic Compound, Preparation Method Thereof and use Thereof in Medicine” (INSILICO MEDICINE IP LIMITED, priority 2021, published 2025).

Columns and labels:
[1] = In-vivo pharmacokinetic experiment in male beagles; parameters: species or system dog; conditions: beagle
Description: Experimental method and conditions: male beagles with weight of 8-11 kg were purchased from Jiangsu Marshall Biotechnology Co., Ltd. The to-be-tested compound was administered to 3 dogs at 0.2 mg/kg or 1.0 mg/kg (solvent: 2% DMSO+10% Kolliphor HS 15+88% (6.818% of hydroxypropyl-beta-cyclodextrin aqueous solution), 0.2 mg/mL or 1.0 mg/mL) by intravenous injection, and administered to 3 dogs at 2 mg/kg (solvent: 5% DMSO+95% (10% hydroxypropyl-beta-cyclodextrin salt aqueous solution, 0.4 mg/mL) by oral intragastric administration. Head vein blood sampling was carried out 5 min, 15 min, 30 min, 1 h, 2 h, 4 h, 8 h and 24 h after the administration, and 500 μL of each sample was collected. After collection, the samples were placed on ice, and plasma was centrifugally separated within 15 min for testing. The concentration of the medicine in the plasma was detected by liquid chromatography-tandem mass spectrometry (LC/MS/MS), and pharmacokinetic parameters were calculated with Phoenix WinNonlin software when the concentration was measured.

[2] = tested on: OVCAR-3 human ovarian adenocarcinoma cells; assay: OVCAR-3 tumor cell proliferation inhibition (CellTiter-Glo); assay type: cell-based; conditions: 3 d culture
Description: (§1) OVCAR-3 was purchased from ATCC; article No.: HTB-161; RPMI1640 was purchased from Gibco; article No.: 11875-093; Pancreatin (including EDTA) was purchased from Gibco; article No.: 25200-072; FBS was purchased from Gibco; Article No.: 10091-148; CellTiter-Glo was purchased from Promega; article No.: G7573; Bovine insulin was purchased from absin; article No.: abs9169; DMSO was purchased from VWR AMRESCO; article No.: 0231-500ML; Staurosporine was purchased from Selleck; article No.: S1421; a cell counter was purchased from CHEMOMETEC; model: NC-200; and a microplate reader was purchased from PerkinElmer; Model: Envison.
(§2) OVCAR-3 was human ovarian adenocarcinoma cells cultured in an RPMI-1640 culture medium containing 20% FBS and 0.01 mg/mL of Bovine insulin. Cells in logarithmic phase were taken, and the cells were subjected to digesting, collecting and counting with pancreatin-EDTA, 2000 OVCAR-3 cells/well were inoculated in a 384-well cell plate, and were cultured in 5% CO2 overnight. A 1000× compound stock solution with 3.16 times of gradient concentration was prepared with DMSO, and was diluted 100 times to 10× compound stock solution with a culture medium, and 10× compound stock solution was added into each cell culture well on the next day after cell inoculation, wherein the final concentration was 1×, and the DMSO content was 0.1%. The cell group was treated with DMSO as an experimental control (control), and the cell group was treated with 5 μM of Staurosporine as a blank control (blank).

[3] = tested on: HCC70 human breast ductal cancer cells; assay: HCC70 tumor cell proliferation inhibition (CellTiter-Glo); assay type: cell-based; conditions: 3 d culture
Description: as §1, with “HCC70” for “OVCAR-3”, “CRL-2315;” for “HTB-161;”, “article” for “Article”, “10099-141C;” for “10091-148;”, “G7573;” for “G7573; Bovine insulin was purchased from absin; article No.: abs9169;”
as §2, with “HCC70” for “OVCAR-3”, “breast ductal cancer” for “ovarian adenocarcinoma”, “10% FBS.” for “20% FBS and 0.01 mg/mL of Bovine insulin.”

[4] = male, dog, plasma, intravenous injection 1.0 mg/kg
[5] = male, dog, plasma, oral administration 2 mg/kg

CC1(C)CC[C@H](Nc2ncc(C(F)(F)F)c(-c3c[nH]c4c(P(C)(C)=O)c(C#N)ccc34)n2)CN1 [Compound 101, reference compound]
CL ([1]; intravenous injection 1.0 mg/kg): 14.5 mL/min/kg | Cmax ([1]; oral administration 2 mg/kg): 123 ng/mL | F(%) ([1]; oral administration 2 mg/kg): 65.8% | AUC(0-inf) [1, 4]: 1230 ng·h/mL | half-life [1, 4]: 6.88 h | Vd ([1]; male, dog, plasma, intravenous injection 1.0 mg/kg, read-out: Vss): 7.57 L/kg | AUC(0-inf) [1, 5]: 1590 ng·h/mL | half-life [1, 5]: 6.61 h

CN1CCOCCN(C)[C@H]2CC[C@@H](C2)Nc2ncc(C(F)(F)F)c(n2)-c2c[nH]c3c(P(C)(C)=O)c(ccc23)C1=O [Compound Z63, (4^1S,4^3S)-1^7-(dimethylphosphoryl)-5,11-dimethyl-2^5-(trifluoromethyl)-1^1H-8-oxa-3,5,11-triaza-1(3,6)-indola-2(4,2)-pyrimidina-4(1,3)-cyclopentanacyclododecaphan-12-one]
IC50 [2]: 195 nM | IC50 [3]: 134 nM

CN1CCOCCN[C@H]2CC[C@@H](C2)Nc2ncc(C(F)(F)F)c(n2)-c2c[nH]c3c(P(C)(C)=O)c(ccc23)C1=O [Compound Z64, (4^1S,4^3S)-1^7-(dimethylphosphoryl)-11-methyl-2^5-(trifluoromethyl)-1^1H-8-oxa-3,5,11-triaza-1(3,6)-indola-2(4,2)-pyrimidina-4(1,3)-cyclopentanacyclododecaphan-12-one]
IC50 [2]: 98.6 nM | IC50 [3]: 42.8 nM

CN1CC(F)(F)CCNC2CC[C@@H](C2)Nc2ncc(C(F)(F)F)c(n2)-c2c[nH]c3c(P(C)(C)=O)c(ccc23)C1=O [Compound Z66, (41 S,4^3S)-1^7-(dimethylphosphoryl)-8,8-difluoro-10-methyl-2^5-(trifluoromethyl)-1^1H-3,5,10-triaza-1(3,6)-indola-2(4,2)-pyrimidina-4(1,3)-cyclopentanacycloundecaphan-11-one]
IC50 [2]: 21.2 nM | IC50 [3]: 10.5 nM

COc1cc2c(cn1)-c1ccc3c(c[nH]c3c1)-c1nc(ncc1C(F)(F)F)N[C@H]1CC[C@@H](C1)NCCCC2 [Compound Z73]
IC50 ([2]; Homo sapiens, OVCAR-3, 72 h): 1050 nM | IC50 ([3]; Homo sapiens, HCC70, 72 h): 233 nM

O=c1cc2c(c[nH]1)-c1ccc3c(c[nH]c3c1)-c1nc(ncc1C(F)(F)F)N[C@H]1CC[C@@H](C1)NCCCC2 [Compound Z74]
IC50 ([2]; Homo sapiens, OVCAR-3, 72 h): 3460 nM | IC50 ([3]; Homo sapiens, HCC70, 72 h): 1250 nM

CN1CC(F)CCNC2CCC(C2)Nc2ncc(C(F)(F)F)c(n2)-c2c[nH]c3c(P(C)(C)=O)c(ccc23)C1=O [Compound Z77, (4^1S,4^3S,8S)-17-(dimethylphosphoryl)-8-fluoro-10-methyl-2^5-(trifluoromethyl)-1′H-3,5,10-triaza-1(3,6)-indola-2(4,2)-pyrimidina-4(1,3)-cyclopentanacycloundecaphan-11-one]
IC50 [2]: 11.8 nM | IC50 [3]: 9.87 nM

CN1C[C@H](F)CCN(C)[C@H]2CC[C@@H](C2)Nc2ncc(C(F)(F)F)c(n2)-c2c[nH]c3c(P(C)(C)=O)c(ccc23)C1=O [Compound Z78, (4^1S,4^3S,8R)-1^7-(dimethylphosphoryl)-8-fluoro-5,10-dimethyl-2^5-(trifluoromethyl)-1^1H-3,5,10-triaza-1(3,6)-indola-2(4,2)-pyrimidina-4(1,3)-cyclopentanacycloundecaphan-11-one]
IC50 [2]: 62.6 nM | IC50 [3]: 44 nM

CN1CCCCN(C)[C@H]2CC[C@@H](C2)Nc2ncc(C(F)(F)F)c(n2)-c2c[nH]c3c(C#N)c(ccc23)C1=O [Compound Z84, (4^1S,4^3S)-5,10-dimethyl-11-oxo-2^5-(trifluoromethyl)-1^1H-3,5,10-triaza-1(3,6)-indola-2(4,2)-pyrimidina-4(1,3)-cyclopentanacycloundecaphane-1^7-carbonitrile]
IC50 [2]: 198 nM | IC50 [3]: 263 nM

CN1CCC(F)(F)CN(C)C2CC[C@@H](C2)Nc2ncc(C(F)(F)F)c(n2)-c2c[nH]c3c(P(C)(C)=O)c(ccc23)C1=O [Compound Z85, (4^1S,4^3S)-1^7-(dimethylphosphoryl)-7,7-difluoro-5,10-dimethyl-2^5-(trifluoromethyl)-1^1H-3,5,10-triaza-1(3,6)-indola-2(4,2)-pyrimidina-4(1,3)-cyclopentanacycloundecaphan-11-one]
IC50 [2]: 1800 nM | IC50 [3]: 517 nM

CN1CCC(F)(F)CN(C)C2CC[C@@H](C2)Nc2ncc(C(F)(F)F)c(n2)-c2c[nH]c3c(P(C)(C)=O)c(ccc23)C1=O [Compound Z86, (4^1S,4^3S)-1^7-(dimethylphosphoryl)-7,7-difluoro-5,10-dimethyl-2^5-(trifluoromethyl)-1^1H-3,5,10-triaza-1(3,6)-indola-2(4,2)-pyrimidina-4(1,3)-cyclopentanacycloundecaphan-11-one]
IC50 [2]: > 10000 nM | IC50 [3]: > 10000 nM

CN1CCC(F)CN(C)C2CC[C@@H](C2)Nc2ncc(C(F)(F)F)c(n2)-c2c[nH]c3c(P(C)(C)=O)c(ccc23)C1=O (stereo partly drawn) [Compound Z89, (41S)-1^7-(dimethylphosphoryl)-7-fluoro-5,10-dimethyl-2^5-(trifluoromethyl)-1^1H-3,5,10-triaza-1(3,6)-indola-2(4,2)-pyrimidina-4(1,3)-cyclopentanacycloundecaphan-11-one]
IC50 [2]: > 10000 nM | IC50 [3]: > 10000 nM

CN1CCC(F)CN(C)C2CC[C@@H](C2)Nc2ncc(C(F)(F)F)c(n2)-c2c[nH]c3c(P(C)(C)=O)c(ccc23)C1=O (some centres unmarked) [Compound Z90, (4^1S)-1^7-(dimethylphosphoryl)-7-fluoro-5,10-dimethyl-2^5-(trifluoromethyl)-1^1H-3,5,10-triaza-1(3,6)-indola-2(4,2)-pyrimidina-4(1,3)-cyclopentanacycloundecaphan-11-one]
IC50 [2]: > 10000 nM | IC50 [3]: > 10000 nM

CN1CCOCCN(C)[C@H]2CC[C@@H](C2)Nc2ncc(C(F)(F)F)c(n2)-c2ccc3c(c[nH]c3n2)C1=O [Compound Z91, (4^1S,4^3S)-5,11-dimethyl-2^5-(trifluoromethyl)-1^1H-8-oxa-3,5,11-triaza-1(3,6)-pyrrolo[2,3-b]pyridina-2(4,2)-pyrimidina-4(1,3)-cyclopentanacyclododecaphan-12-one]
IC50 [2]: 811 nM | IC50 [3]: 438 nM

CN1CCCCN(C)[C@H]2CC[C@@H](C2)Nc2ncc(C(F)(F)F)c(n2)-c2c[nH]c3nc(ccc23)C1=O [Compound Z92, (4^1S,4^3S)-5,10-dimethyl-2^5-(trifluoromethyl)-1^1H-3,5,10-triaza-1(3,6)-pyrrolo[2,3-b]pyridina-2(4,2)-pyrimidina-4(1,3)-cyclopentanacycloundecaphan-11-one]
IC50 [2]: 343 nM | IC50 [3]: 107 nM

CN1CC(F)(F)CCN(C)C2CCC(C2)Nc2ncc(C(F)(F)F)c(n2)-c2ccc3c(c[nH]c3n2)C1=O (centres unmarked) [Compound Z93, (4^1S,4^3S)-8,8-difluoro-5,10-dimethyl-2^5-(trifluoromethyl)-1^1H-3,5,10-triaza-1(3,6)-pyrrolo[2,3-b]pyridine-2(4,2)-pyrimidina-4(1,3)-cyclopentanacycloundecaphan-11-one]
IC50 [2]: > 10000 nM | IC50 [3]: 5210 nM
